The values below are quoted from earlier work in patent US20120156286A1, “COMPOSITIONS AND METHODS FOR INCREASED DELIVERY OF COENZYME Q10” (IMAGENETIX, INC., priority 2010, published 2012).

The conditions of the data set: in vivo.

For `COC1=C(OC)C(=O)C(C/C=C(\C)CC/C=C(\C)CC/C=C(\C)CC/C=C(\C)CC/C=C(\C)CC/C=C(\C)CC/C=C(\C)CC/C=C(\C)CC/C=C(\C)CCC=C(C)C)=C(C)C1=O` [CoQ10, Coenzyme Q10], the Intestinal absorption entry is “less than 10%”.
